The values that follow come from patent US20120122870A1, “Treatment Of Ischemia-Reperfusion Injury” (MUSC FOUNDATION FOR RESEARCH DEVELOPMENT, priority 2009, published 2012).

Entries after “also recorded” stand apart in the source; their conditions may differ.

Experiment [1] has as its system PMN infiltration in liver. Description: PMN infiltration (MPO immunohistochemistry) after hepatic warm IR. In kind it is in vivo, mice. The method, then: ABC294640 prevents hepatic warm ischemia-reperfusion (IR)-induced polymorphonuclear leukocyte (PMN) infiltration in mice. Hepatic warm ischemia was induced by clamping the mouse hepatic artery and portal vein to the upper three lobes of the liver as described in the original application. One hour later, the ischemic liver was reperfused by opening the vascular clamp. Livers were collected 6 h later and myeloperoxidase (MPO), a marker of PMNs, was detected immunohistochemically. MPO-positive cells were counted in 10 fields selected randomly per slide in a blinded manner to assess PMN infiltration. MPO-positive cells were ˜1/high power field (hpf) in livers from sham-operated mice (FIG. 16). Six hours after reperfusion, MPO-positive cells increased almost 10-fold, indicating pronounced inflammation. […] ABC294640 (50 mg/kg, i.g. once) decreased PMN infiltration by ˜70% at 6 h after reperfusion (FIG. 16). Livers from mice exposed to one dose of ABC294640 had lower PMN infiltration compared to the untreated mice even at 2 weeks after reperfusion. […] Immunohistochemistry: Sections were deparaffinized in xylene, rehydrated in a series of graded alcohol concentrations and placed in phosphate buffered saline with 0.1% Tween-20. […] Appropriate peroxidase-conjugated secondary antibodies (DAKO Corp.) were then applied, followed by 3,3′-diaminobenzidine chromagen as the peroxidase substrate. A light counterstain of Meyer's hematoxylin was applied.

In experiment [2] the test system is hepatic warm IR in C57BL/6 mice. Description: Liver necrosis (H+E, image analysis) after hepatic warm IR. In kind it is in vivo. The protocol:
Warm IR upregulates SK in the liver. IR injury to the liver occurs in LT. Since SK is associated with inflammatory processes, we investigated whether IR affects SK expression in the liver. Male C57BL/6 mice (8-9 weeks) were gavaged with ABC294640 (ABC, 50 mg/kg) or an equal volume of vehicle (0.375% Tween-80 in phosphate buffer) 1 h prior to surgery. Under ether anesthesia, hepatic ischemia was induced by clamping the hepatic artery and portal vein to the upper three lobes of the liver (i.e., about 70% of total liver). One hour later, the ischemic liver was reperfused by opening the vascular clamp. Livers were collected 6 h later under pentobarbital anesthesia (80 mg/kg, i.p.) and SK was detected immunohistochemically. […] SK expression increased markedly after hepatic IR (FIG. 9 middle). Upregulation of SK occurred most overtly in hepatocytes in the midzonal regions of the liver lobule.
ABC294640 prevents hepatic warm IR-induced cell death. SK increased after hepatic IR, therefore, we investigated whether ABC294640 protects against hepatic IR injury. […] Necrotic areas became panlobular after 1 h-ischemia plus 6 h of reperfusion (FIG. 10, middle). Necrotic area, quantified by computerized image analysis of 10 random fields per slide, accounted for 68% of the liver tissue (FIG. 11A). […] Hepatic apoptosis was evaluated by terminal deoxylnucleotidyl transferase-mediated deoxyuridine triphosphate biotin nick end labeling (TUNEL) (FIG. 11B). […]
Histology: Under pentobarbital anesthesia (50 mg/kg, i.p.), livers were rinsed with 10 ml normal saline and perfusion-fixed with 4% paraformaldehyde in phosphate buffer, embedded in paraffin, and sections were stained with hematoxylin-eosin (H+E). Necrotic areas in sections were quantified by image analysis using an Image-1/AT image acquisition and analysis system (Universal Imaging Corp., West Chester, Pa.) incorporating an Axioskop 50 microscope (Carl Zeiss, Inc., Thornwood, NY) and a 10× objective lens.

For experiment [3], the system named is kidney ischemia-reperfusion in C57/Bl6 mice. In words: Ischemia-reperfusion of the kidney (mild model), BUN and creatinine. In kind it is in vivo. The settings on record: 50 mg/kg oral gavage. The protocol: ABC294640 reduces kidney damage following ischemia-reperfusion. Male C57/Bl6 mice (approximately 24 g) were first dosed with ABC294640 (50 mg/kg in 0.1 mL by oral gavage) or vehicle (0.1 mL in 0.375% Tween 80 in Phosphate-Buffered Saline), immediately followed by intraperitoneal injection of ketamine/xylazine for anesthesia. The procedure was performed on a heated surface using homeothermic pads to ensure the maintenance of animal body temperature. A midline incision was made and the two renal pedicles were located and clamped for 22 minutes or 25 minutes as indicated. Total blockage of the renal pedicle and thus artery was confirmed after several minutes as the kidney were seen to be dark red to purple in color, assuring correct clamp placement. […] One milliliter of pre-warmed (37° C.) sterile saline was instilled into the peritoneum at the time of closing using sutures for musculature and wound clips for the skin incision. Animals were maintained on homeothermic pads until awakening from anesthesia and post-operatively assessed for health.
Levels of blood urea nitrogen (BUN) were determined as an indicator of renal function. […] Therefore, the SK inhibitor substantially improves kidney function that persists for at least 3 days after drug administration.
ABC294640 reduces kidney damage following ischemia-reperfusion. Kidney ischemia-reperfusion was repeated as in Example 1, except that the duration of bilateral pedicle clamping was 25 minutes and animals were sacrificed 24 hours after surgery.
Ischemia-reperfusion of the kidney (mild model): Male C57/Bl6 mice (approximately 24 g) were first dosed with ABC294640 (50 mg/kg in 0.1 ml by oral gavage) or vehicle (0.1 ml in 0.375% Tween 80 in Phosphate-Buffered Saline), immediately followed by intraperitoneal injection of ketamine/xylazine for anesthesia. The procedure was performed on a heated surface using homeothermic pads to ensure the maintenance of animal body temperature. […] Animals were maintained on homethermic pads until awakening from anesthesia and post-operatively assessed for health.

A further experiment deals with hepatic warm IR in mice. In words: Survival after hepatic warm IR with removal of non-ischemic lobes. The experiment is classed as in vivo. The note with it: 1 h-ischemia, non-ischemic lobes removed, observed 7 days. The source says: To evaluate the effects of ABC294640 on survival of mice after IR, the non-ischemic liver lobes were removed after the vascular clamp was opened and mice were observed 7 days for survival. This procedure mimics total LT.

[4] abbreviates: 25 minutes bilateral clamping, 24 hours after reperfusion.

For the compound `O=C(NCc1ccncc1)C12CC3CC(C1)CC(c1ccc(Cl)cc1)(C3)C2` [ABC294640, 3-(4-chlorophenyl)-N-(pyridin-4-ylmethyl)adamantane-1-carboxamide], the “decrease of PMN infiltration (MPO-positive cells)” value in experiment [1] (50 mg/kg, i.g. once, 6 h after reperfusion) was approximately 70%. In experiment [1] (livers harvested 6 h or 2 weeks after IR), the “PMN infiltration after hepatic IR (in words)” value was “inhibits PMN infiltration”. Moreover, in experiment [1] (one dose, 2 weeks after reperfusion), the “PMN infiltration compared to untreated mice” value is “lower”. The “necrotic area of liver tissue” value in experiment [2] (50 mg/kg, 1 h-ischemia plus 6 h of reperfusion, image analysis of 10 random fields) is given as approximately 7%. The “necrosis / cell death after hepatic IR (in words)” value in experiment [2] (1 h-ischemia plus 6 h-reperfusion) is “attenuates necrosis; also recorded: prevents cell death”. The “attenuation of necrosis compared to vehicle-treated livers” value in experiment [2] (1 h-ischemia plus 6 h of reperfusion) is approximately 90%. For the same compound, the “BUN levels vs vehicle” value in experiment [3] (setting [4]) is listed as “significantly lower; also recorded: substantially lower”; in experiment [3] (bilateral renal pedicle clamping, 72 hours after reperfusion), “significantly lower”. Besides, the “creatinine levels vs vehicle” value in experiment [3] (setting [4]) is given as “significantly lower; also recorded: substantially lower”. Also, the “survival / acute liver failure after IR (in words)” value in the experiment with hepatic warm IR in mice was “significantly different; also recorded: completely prevented acute liver failure”. Besides, the “survival after IR” value in the experiment with hepatic warm IR in mice (pretreated mice) stood at 100%.
